Measured values taken from PubChem BioAssay AID248 (DTP/NCI, 2004).
Toxic doses and inconclusive results are not listed. Rule as the data show it: active = T/C of 150% or more; inactive = T/C below 125%.

Test system: L1210 leukemia ip in BDF1 mice, survival T/C
Assay: NCI In Vivo Anticancer Drug Screen. Data for tumor model L1210 Leukemia (intraperitoneal) in B6D2F1 (BDF1) mice
Settings: endpoint: mean survival time, higher = longer survival
How it was run: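 Antitumor effect is assessed in tumor-bearing animals. Survival in the compound arm is compared with a vehicle-dosed control arm and expressed as their quotient.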

[1] = dose: 100.0 mg/kg/injection, schedule: Q01DX009 (ip), vehicle: Klucel (hydroxypropylcellulose) (HPC)
[2] = dose: 100.0 mg/kg/injection, schedule: Q04DX003 (ip), vehicle: Klucel (hydroxypropylcellulose) (HPC)
[3] = dose: 200.0 mg/kg/injection, schedule: Q01DX009 (ip), vehicle: Klucel (hydroxypropylcellulose) (HPC)
[4] = dose: 200.0 mg/kg/injection, schedule: Q04DX003 (ip), vehicle: Klucel (hydroxypropylcellulose) (HPC)
[5] = dose: 400.0 mg/kg/injection, schedule: Q01DX009 (ip), vehicle: Klucel (hydroxypropylcellulose) (HPC)
[6] = dose: 400.0 mg/kg/injection, schedule: Q04DX003 (ip), vehicle: Klucel (hydroxypropylcellulose) (HPC)
[7] = dose: 100.0 mg/kg/injection, schedule: Q01DX001 (ip), vehicle: other
[8] = dose: 100.0 mg/kg/injection, schedule: Q04DX003 (ip), vehicle: saline with Tween-80
[9] = dose: 200.0 mg/kg/injection, schedule: Q01DX001 (ip), vehicle: other
[10] = dose: 200.0 mg/kg/injection, schedule: Q04DX003 (ip), vehicle: saline with Tween-80
[11] = dose: 400.0 mg/kg/injection, schedule: Q01DX001 (ip), vehicle: other
[12] = dose: 400.0 mg/kg/injection, schedule: Q04DX003 (ip), vehicle: saline with Tween-80
[13] = dose: 100.0 mg/kg/injection, schedule: Q01DX009 (ip), vehicle: saline sonified
[14] = dose: 200.0 mg/kg/injection, schedule: Q01DX009 (ip), vehicle: saline sonified
[15] = dose: 400.0 mg/kg/injection, schedule: Q01DX009 (ip), vehicle: saline sonified
[16] = dose: 50.0 mg/kg/injection, schedule: Q01DX009 (ip), vehicle: saline with Tween-80
[17] = dose: 100.0 mg/kg/injection, schedule: Q04DX002 (ip), vehicle: Klucel (hydroxypropylcellulose) (HPC)
[18] = dose: 200.0 mg/kg/injection, schedule: Q04DX002 (ip), vehicle: Klucel (hydroxypropylcellulose) (HPC)
[19] = dose: 400.0 mg/kg/injection, schedule: Q04DX002 (ip), vehicle: Klucel (hydroxypropylcellulose) (HPC)
[20] = dose: 100.0 mg/kg/injection, schedule: Q01DX001 (ip), vehicle: saline
[21] = dose: 200.0 mg/kg/injection, schedule: Q01DX001 (ip), vehicle: saline
[22] = dose: 100.0 mg/kg/injection, schedule: Q01DX009 (ip), vehicle: saline

Measured: T/C

COc1cc(C(=O)O)c(O)c(OC)c1OC
inactive: [1] 96 % of control | [2] 98 % of control | [3] 106 % of control | [4] 101 % of control | [5] 101 % of control | [6] 104 % of control

CCOC(=O)Nc1cc(Cl)c([N+](=O)[O-])c(N)n1
inactive: dose: 50.0 mg/kg/injection, schedule: Q01DX001 (ip), vehicle: other 106 % of control | [7] 101 % of control | [8] 92 % of control | [9] 109 % of control | [10] 116 % of control | [11] 104 % of control | [12] 104 % of control

CCC(C)COC(=O)c1cccc2c1-c1ccccc1C2=O (configuration not stated)
inactive: [7] 98 % of control | [9] 88 % of control | [11] 93 % of control

CCCCc1ccc(OCCBr)cc1
inactive: [13] 102 % of control | [2] 95 % of control | [14] 98 % of control | [4] 103 % of control | [15] 95 % of control | [6] 101 % of control

CCCC(=O)c1cc(O)c(O)cc1O
inactive: [16] 96 % of control | [8] 95 % of control | [10] 105 % of control

C(=N\Nc1nc2ccccc2s1)/c1ccc(/C=N/Nc2nc3ccccc3s2)cc1
inactive: [1] 96 % of control | [3] 96 % of control | [5] 104 % of control

O=C1OC(c2ccccc2)C=C1Nc1ccccc1 (configuration not stated)
inactive: [8] 95 % of control | [10] 95 % of control | [12] 91 % of control

NC1=NC(=O)C(c2ccccc2)(c2ccccc2)S1
inactive: dose: 100.0 mg/kg/injection, schedule: Q01DX001 (ip), vehicle: carboxymethylcellulose (CMC) 91 % of control | [1] 97 % of control | [17] 94 % of control | dose: 200.0 mg/kg/injection, schedule: Q01DX001 (ip), vehicle: carboxymethylcellulose (CMC) 98 % of control | [3] 97 % of control | [18] 90 % of control | dose: 400.0 mg/kg/injection, schedule: Q01DX001 (ip), vehicle: carboxymethylcellulose (CMC) 91 % of control | [5] 97 % of control | [19] 97 % of control

Nc1nc(N)c(N)c(Nc2ccc(Cl)cc2)n1
inactive: [17] 101 % of control | [18] 101 % of control

COc1c(NC(=O)c2cccc(C(=O)Nc3cccc([N+](=O)[O-])c3OC)c2)cccc1[N+](=O)[O-]
inactive: [1] 96 % of control | [3] 89 % of control | [5] 92 % of control

O=CNc1ccccc1Cc1ccccc1
inactive: [20] 101 % of control | [21] 107 % of control

O=C1CC2c3ccccc3C1C1C(=O)OC(=O)C21 (configuration not stated)
inactive: dose: 25.0 mg/kg/injection, schedule: Q01DX009 (ip), vehicle: Klucel (hydroxypropylcellulose) (HPC) 94 % of control | dose: 50.0 mg/kg/injection, schedule: Q01DX009 (ip), vehicle: Klucel (hydroxypropylcellulose) (HPC) 105 % of control | [20] 102 % of control | [1] 112 % of control | [22] 96 % of control | [2] 107 % of control | dose: 100.0 mg/kg/injection, schedule: Q04DX003 (ip), vehicle: saline 100 % of control | [21] 98 % of control | [4] 100 % of control | dose: 200.0 mg/kg/injection, schedule: Q04DX003 (ip), vehicle: saline 91 % of control | dose: 400.0 mg/kg/injection, schedule: Q01DX001 (ip), vehicle: saline 93 % of control | [6] 109 % of control

NCCc1ccc(F)cc1
inactive: [22] 109 % of control | dose: 200.0 mg/kg/injection, schedule: Q01DX009 (ip), vehicle: saline 97 % of control

CC(C(=O)c1ccccc1)c1ccccc1 (configuration not stated)
inactive: [16] 97 % of control | dose: 100.0 mg/kg/injection, schedule: Q01DX009 (ip), vehicle: saline with Tween-80 87 % of control | [17] 106 % of control | dose: 100.0 mg/kg/injection, schedule: Q04DX002 (ip), vehicle: saline with Tween-80 90 % of control | dose: 200.0 mg/kg/injection, schedule: Q01DX009 (ip), vehicle: saline with Tween-80 87 % of control | [18] 91 % of control | dose: 200.0 mg/kg/injection, schedule: Q04DX002 (ip), vehicle: saline with Tween-80 107 % of control | [19] 98 % of control | dose: 400.0 mg/kg/injection, schedule: Q04DX002 (ip), vehicle: saline with Tween-80 101 % of control

CN(C)CCCn1c2c(c3ccccc31)CCCCCC2
inactive: dose: 6.25 mg/kg/injection, schedule: Q01DX009 (ip), vehicle: saline 96 % of control | dose: 12.5 mg/kg/injection, schedule: Q01DX009 (ip), vehicle: saline 93 % of control | dose: 25.0 mg/kg/injection, schedule: Q01DX009 (ip), vehicle: saline 98 % of control | dose: 50.0 mg/kg/injection, schedule: Q01DX009 (ip), vehicle: saline 102 % of control

CCOC(=O)c1c(Cl)c(Cl)c(C(=O)OCC)c(Cl)c1Cl
inactive: [13] 101 % of control | [2] 101 % of control | [14] 97 % of control | [4] 95 % of control | [15] 95 % of control | [6] 92 % of control

CCOC(=O)c1cnc(SC)nc1C(=O)OCC
inactive: dose: 50.0 mg/kg/injection, schedule: Q04DX003 (ip), vehicle: Klucel (hydroxypropylcellulose) (HPC) 102 % of control | [2] 94 % of control | [4] 102 % of control

O=S(=O)(CCCl)c1ccccc1
inactive: [2] 103 % of control | [8] 92 % of control | [4] 97 % of control | [10] 92 % of control | [6] 94 % of control | [12] 97 % of control

CSc1cc(=O)n2c3ccccc3c3ccnc1c32
inactive: dose: 5.0 mg/kg/injection, schedule: Q01DX001 (ip), vehicle: saline 98 % of control | dose: 10.0 mg/kg/injection, schedule: Q01DX001 (ip), vehicle: saline 98 % of control | dose: 20.0 mg/kg/injection, schedule: Q01DX001 (ip), vehicle: saline 100 % of control | dose: 40.0 mg/kg/injection, schedule: Q01DX001 (ip), vehicle: saline 98 % of control | dose: 80.0 mg/kg/injection, schedule: Q01DX001 (ip), vehicle: saline 100 % of control | [20] 120 % of control

CCOc1ccc(Nc2ncnc3nc[nH]c23)cc1CN(CCCl)CCCl
inactive: dose: 1.2 mg/kg/injection, schedule: Q01DX Z (ip), vehicle: carboxymethylcellulose (CMC) 98 % of control | dose: 1.3 mg/kg/injection, schedule: Q01DX Z (ip), vehicle: carboxymethylcellulose (CMC) 114 % of control | dose: 1.56 mg/kg/injection, schedule: Q04DX003 (ip), vehicle: saline 113 % of control | dose: 1.9 mg/kg/injection, schedule: Q01DX Z (ip), vehicle: carboxymethylcellulose (CMC) 117 % of control | dose: 2.5 mg/kg/injection, schedule: Q01DX Z (ip), vehicle: carboxymethylcellulose (CMC) 103 % of control | dose: 3.3 mg/kg/injection, schedule: Q04DX003 (ip), vehicle: saline 111 % of control | dose: 4.2 mg/kg/injection, schedule: Q01DX Z (ip), vehicle: carboxymethylcellulose (CMC) 116 % of control | dose: 5.0 mg/kg/injection, schedule: Q01DX001 (ip), vehicle: carboxymethylcellulose (CMC) 104 % of control | dose: 5.0 mg/kg/injection, schedule: Q01DX Z (ip), vehicle: carboxymethylcellulose (CMC) 116 % of control | dose: 5.0 mg/kg/injection, schedule: Q04DX003 (ip), vehicle: saline 122 % of control | dose: 7.5 mg/kg/injection, schedule: Q04DX003 (ip), vehicle: saline 121 % of control | dose: 10.0 mg/kg/injection, schedule: Q01DX001 (ip), vehicle: carboxymethylcellulose (CMC) 102 % of control | dose: 10.0 mg/kg/injection, schedule: Q01DX Z (ip), vehicle: carboxymethylcellulose (CMC) 110 % of control | dose: 20.0 mg/kg/injection, schedule: Q01DX001 (ip), vehicle: carboxymethylcellulose (CMC) 109 % of control | dose: 40.0 mg/kg/injection, schedule: Q01DX001 (ip), vehicle: carboxymethylcellulose (CMC) 102 % of control
